Source: ChEMBL document CHEMBL5120889, “Dolabrane-Type Diterpenoids with Immunosuppressive Activity from Koilodepas hainanense” (J Nat Prod, 2022)
pIC50: −log10 of the molar value.

Key:
[1] = Immunosuppressive activity in BALB/c mouse splenocytes assessed as reduction in ConA-induced mouse T-lymphocytes proliferation incubated for 8 hrs by beta scintillation counting based [3H]thymidine incorporation assay; assay type: functional; settings: T-cell
[2] = Cytotoxicity in BALB/c mouse Splenocyte assessed as reduction in cell viability incubated for 48 hrs by MTT assay; assay type: toxicity, cell-based; settings: splenocytes
[3] = Selectivity index, ratio of CC50 for cytotoxicity in BALB/c mouse splenocytes to IC50 for immunosuppressive activity in BALB/c mouse splenocytes assessed as reduction in ConA-induced mouse T-lymphocytes proliferation; assay type: toxicity, cell-based; settings: read-out: Ratio CC50/IC50
B-cell line = test: Immunosuppressive activity in BALB/c mouse splenocytes assessed as reduction in LPS-induced mouse B-lymphocytes proliferation incubated for 8 hrs by beta scintillation counting based [3H]thymidine incorporation assay; assay type: functional
[4] = Selectivity index, ratio of CC50 for cytotoxicity in BALB/c mouse splenocytes to IC50 for immunosuppressive activity in BALB/c mouse splenocytes assessed as reduction in LPS-induced mouse B-lymphocytes proliferation; assay type: toxicity, cell-based; settings: read-out: Ratio CC50/IC50

Row | SMILES | pIC50 [1] | CC50 at 48 h [2] [µM] | selectivity ratio [3] | pIC50 (B-cell line; read-out: IC50) | selectivity ratio [4] | pIC50 (B-cell line)
1 | CC1=C(O)C(=O)C[C@@H]2[C@@]3(C)CC[C@](C)(C(=O)O)C[C@@H]3CC[C@]12C | 5.47 | 6.46 | 1.9 | 5.52 | 2.1 | –
2 | C[C@@H]1C(=O)CC[C@@H]2[C@@]3(C)CC[C@](C)([C@@H](O)CO)C[C@@H]3CC[C@]21C | 4.62 | 24.2 | 1 | 4.99 | 2.4 | –
3 | CC1=CC(=O)C[C@@H]2[C@@]3(C)CC[C@](C)(O)C[C@@H]3CC[C@@]12C | 5.51 | 13.2 | 4.2 | 5.65 | 5.9 | –
4 | C/C=C/C[C@@H](C)[C@@H](O)[C@H]1C(=O)N[C@@H](CC)C(=O)N(C)CC(=O)N(C)[C@@H](CC(C)C)C(=O)N[C@@H](C(C)C)C(=O)N(C)[C@@H](CC(C)C)C(=O)N[C@@H](C)C(=O)N[C@H](C)C(=O)N(C)[C@@H](CC(C)C)C(=O)N(C)[C@@H](CC(C)C)C(=O)N(C)[C@@H](C(C)C)C(=O)N1C [CYCLOSPORINE] | – | – | – | – | – | 6.13
